Experimental findings from patent US7098186B2, “Depsipeptide compound” (Astellas Pharma INC, priority 2002, dated 2006) are described below.

Common to all, as to format: cell-based
Assay [1] deals with human leukemia K562 cells. Nature of the assay: Inhibition of cell proliferation against human cancer cells (Alamar Blue), K562. As to conditions: 72 hours culture. As for the experimental part: (§1) Human colon cancer WiDr cells or human leukemia K562 cells were inoculated into a 96-well test plate at a density of 5×10^3 cell/well and cultured at 37° C. in a […] incubator. Eighteen hours after the inoculation, the solvent (DMSO) diluted with the medium and various concentrations of the compound Q or R were added, and followed by further culture at 37° C. in a […] incubator for 72 hours. After the culturing, the proliferation of cells was measured with Alamar Blue (BIOSOURCE Co.). The measurement values for the conditions in which 0.1% DMSO and cells had been added, and 0.1% DMSO had been added and cells had not been added were assigned to be 0% inhibition and 100% inhibition, respectively, and the proliferation inhibition rate for each concentration of the compounds was obtained, then the concentration of inhibiting proliferation by 50% (IC50 value) was calculated by logistic regression.

Assay [2] has as its system Human colon cancer WiDr cells. In words: Inhibition of cell proliferation against human cancer cells (Alamar Blue), WiDr. As to conditions: 72 hours culture. As for the experimental part: as §1
For assay [3], the system named is acetylated histone H3 in K562 cells. In words: Effect on inducing histone acetylation against human cancer cells (Western blot, anti-acetylated histone H3). The settings on record: 0.3 to 30 nM, 24 hours, in comparison with the sample treated with solvent. As for the experimental part: After inoculating K562 cells into a 35 mm dish at a density of 1.5×10^6 cell/dish, the solvent (DMSO) and various concentrations (0.3 to 30 nM) of the compound Q or R were added and cultured at 37° C. in a […] incubator for 24 hours. Extraction of the histone protein was performed by the following method. To the cell precipitate collected by centrifugation, TEN buffer (10 mM Tris HCl (pH 8.0), 1 mM EDTA, 1% NP-40, 1 tablet/10 mL Complete mini (Roche Co.)) was added, stood on the ice for 10 minutes, and the supernatant was collected by centrifugation. The supernatant was mixed well with an equal amount of 0.4 M sulfuric acid, and stood on ice for 1 hour. The supernatant portion was collected by centrifugation, mixed with 5 times amount of acetone and stood at −20° C. for 12 hours or more. The precipitate was collected by centrifugation, washed once with acetone, and then the precipitate was dried. The precipitate was dissolved in distilled water, which was made to be histone protein, the protein concentration was determined by the Bradford method. […] For the primary antibody, an anti-acetylated histone H3 antibody (UPSTATE biotechnology Co.), for the secondary antibody, an HRP labeled anti-rabbit antibody (Amersham Pharmacia Biotech Co.) were used, and luminescence was detected by ECL (Amersham Pharmacia Biotech Co.).

With `CC1NC(=O)CC2/C=C/CCSSSCC(NC1=O)C(=O)NC(C(C)C)C(O)CC(=O)O2` (stereo not drawn) [compound Q], the IC50 in assay [1] stood at 1.4 nM; in assay [2], 3 nM. In addition, in assay [3], the “bands of acetylated histone H3 (induction of histone acetylation)” value is “significant and dose-dependent bands of acetylated histone H3 were detected”.
As to `CC1NC(=O)CC2/C=C/CCSSCC(NC1=O)C(=O)NC(C(C)C)C(O)CC(=O)O2` (stereo not drawn) [compound R], the results for the IC50 in assay [1] and in assay [2] were 0.6 nM and 0.9 nM, respectively. Further, the “bands of acetylated histone H3 (induction of histone acetylation)” value in assay [3] is “significant and dose-dependent bands of acetylated histone H3 were detected”.
